The NIST ThermoML archive (doi:10.1016/j.jct.2014.05.014)

Experiment: cn = amount concentration of the nth substance listed, in mol/dm3
Conditions: 101.3 kPa, Liquid; for electrical conductivity: Alternating current cell with electrodes; for viscosity: Falling or rolling sphere viscometry; for mass density: Vibrating tube method

CC(N)C(=O)[O-].[K+] (stereo not drawn) [potassium DL-alaninate] + O
Conditions | electrical conductivity [S/m] | mass density [kg/m3] | viscosity [mPa·s]
303.15 K, c1 = 0.495 | – | 1024.1 | –
303.15 K, c1 = 0.514 | – | – | 0.942
303.15 K, c1 = 0.526 | 3.96 | – | –
303.15 K, c1 = 1.009 | 6.63 | – | –
303.15 K, c1 = 1.014 | – | 1051.7 | –
303.15 K, c1 = 1.029 | – | – | 1.118
303.15 K, c1 = 1.499 | 8.42 | – | –
303.15 K, c1 = 1.509 | – | 1078.7 | –
303.15 K, c1 = 1.524 | – | – | 1.342
303.15 K, c1 = 1.954 | – | 1103.2 | –
303.15 K, c1 = 1.999 | – | – | 1.6
303.15 K, c1 = 2.018 | 9.49 | – | –
303.15 K, c1 = 2.501 | 9.88 | – | –
303.15 K, c1 = 2.507 | – | 1131.4 | –
303.15 K, c1 = 2.522 | – | – | 1.964
303.15 K, c1 = 2.988 | – | 1155.8 | –
303.15 K, c1 = 3.046 | 9.87 | – | –
303.15 K, c1 = 3.048 | – | – | 2.422
303.15 K, c1 = 3.497 | 9.58 | – | –
303.15 K, c1 = 3.499 | – | 1181 | –
308.15 K, c1 = 0.495 | – | 1022.4 | –
308.15 K, c1 = 0.514 | – | – | 0.845
308.15 K, c1 = 0.526 | 4.34 | – | –
308.15 K, c1 = 1.009 | 7.25 | – | –
308.15 K, c1 = 1.014 | – | 1049.8 | –
308.15 K, c1 = 1.029 | – | – | 1.009
308.15 K, c1 = 1.499 | 9.18 | – | –
308.15 K, c1 = 1.509 | – | 1076.7 | –
308.15 K, c1 = 1.524 | – | – | 1.203
308.15 K, c1 = 1.954 | – | 1101.1 | –
308.15 K, c1 = 1.999 | – | – | 1.429
308.15 K, c1 = 2.018 | 10.4 | – | –
308.15 K, c1 = 2.501 | 10.8 | – | –
308.15 K, c1 = 2.507 | – | 1129.2 | –
308.15 K, c1 = 2.522 | – | – | 1.745
308.15 K, c1 = 2.988 | – | 1153.4 | –
308.15 K, c1 = 3.046 | 10.9 | – | –
308.15 K, c1 = 3.048 | – | – | 2.135
308.15 K, c1 = 3.497 | 10.6 | – | –
308.15 K, c1 = 3.499 | – | 1178.4 | –
313.15 K, c1 = 0.495 | – | 1020.5 | –
313.15 K, c1 = 0.514 | – | – | 0.769
313.15 K, c1 = 0.526 | 4.73 | – | –
313.15 K, c1 = 1.009 | 7.84 | – | –
313.15 K, c1 = 1.014 | – | 1047.7 | –
313.15 K, c1 = 1.029 | – | – | 0.909
313.15 K, c1 = 1.499 | 9.94 | – | –
313.15 K, c1 = 1.509 | – | 1074.5 | –
313.15 K, c1 = 1.524 | – | – | 1.093
313.15 K, c1 = 1.954 | – | 1098.8 | –
313.15 K, c1 = 1.999 | – | – | 1.29
313.15 K, c1 = 2.018 | 11.2 | – | –
313.15 K, c1 = 2.501 | 11.8 | – | –
313.15 K, c1 = 2.507 | – | 1126.8 | –
313.15 K, c1 = 2.522 | – | – | 1.569
313.15 K, c1 = 2.988 | – | 1150.9 | –
313.15 K, c1 = 3.046 | 11.8 | – | –
313.15 K, c1 = 3.048 | – | – | 1.907
313.15 K, c1 = 3.497 | 11.6 | – | –
313.15 K, c1 = 3.499 | – | 1175.8 | –
318.15 K, c1 = 0.495 | – | 1018.4 | –
318.15 K, c1 = 0.514 | – | – | 0.705
318.15 K, c1 = 0.526 | 5.12 | – | –
318.15 K, c1 = 1.009 | 8.45 | – | –
318.15 K, c1 = 1.014 | – | 1045.6 | –
318.15 K, c1 = 1.029 | – | – | 0.83
318.15 K, c1 = 1.499 | 10.7 | – | –
318.15 K, c1 = 1.509 | – | 1072.3 | –
318.15 K, c1 = 1.524 | – | – | 1
318.15 K, c1 = 1.954 | – | 1096.5 | –
318.15 K, c1 = 1.999 | – | – | 1.17
318.15 K, c1 = 2.018 | 12.1 | – | –
318.15 K, c1 = 2.501 | 12.7 | – | –
318.15 K, c1 = 2.507 | – | 1124.3 | –
318.15 K, c1 = 2.522 | – | – | 1.426
318.15 K, c1 = 2.988 | – | 1148.3 | –
318.15 K, c1 = 3.046 | 12.8 | – | –
318.15 K, c1 = 3.048 | – | – | 1.712
318.15 K, c1 = 3.497 | 12.6 | – | –
318.15 K, c1 = 3.499 | – | 1173.1 | –
323.15 K, c1 = 0.514 | – | – | 0.644
323.15 K, c1 = 0.526 | 5.5 | – | –
323.15 K, c1 = 1.009 | 9.06 | – | –
323.15 K, c1 = 1.029 | – | – | 0.76
323.15 K, c1 = 1.499 | 11.5 | – | –
323.15 K, c1 = 1.524 | – | – | 0.922
323.15 K, c1 = 2.018 | 12.9 | – | –
323.15 K, c1 = 2.501 | 13.7 | – | –
323.15 K, c1 = 3.046 | 13.9 | – | –
323.15 K, c1 = 3.497 | 13.7 | – | –
